Tests used:
[1] = target: T1, Metabotropic glutamate receptor 8 (Rattus norvegicus, UniProt P70579); test: Agonist activity in rat at Metabotropic glutamate receptor 8 expressed in HEK293 cells; type: functional, cell-based
[2] = target: Metabotropic glutamate receptor 8 (Rattus norvegicus) (UniProt P70579); test: Maximal effect obtained with 1 mM of the drug expressed as percent of maxiaml effect of glutamate in rat at mGlu8a receptor expressed in HEK293 cells; type: functional, cell-based
[3] = target: Metabotropic glutamate receptor 2 (Rattus norvegicus) (UniProt P31421); test: (§1) Maximal effect obtained with 1 mM of the drug expressed as percent of maxiaml effect of glutamate in rat at mGlu2 receptor expressed in HEK293 cells; type: cell-based
Metabotropic glutamate receptor 2 (Rattus norvegicus), sequence (P31421 19-872 limits assumed): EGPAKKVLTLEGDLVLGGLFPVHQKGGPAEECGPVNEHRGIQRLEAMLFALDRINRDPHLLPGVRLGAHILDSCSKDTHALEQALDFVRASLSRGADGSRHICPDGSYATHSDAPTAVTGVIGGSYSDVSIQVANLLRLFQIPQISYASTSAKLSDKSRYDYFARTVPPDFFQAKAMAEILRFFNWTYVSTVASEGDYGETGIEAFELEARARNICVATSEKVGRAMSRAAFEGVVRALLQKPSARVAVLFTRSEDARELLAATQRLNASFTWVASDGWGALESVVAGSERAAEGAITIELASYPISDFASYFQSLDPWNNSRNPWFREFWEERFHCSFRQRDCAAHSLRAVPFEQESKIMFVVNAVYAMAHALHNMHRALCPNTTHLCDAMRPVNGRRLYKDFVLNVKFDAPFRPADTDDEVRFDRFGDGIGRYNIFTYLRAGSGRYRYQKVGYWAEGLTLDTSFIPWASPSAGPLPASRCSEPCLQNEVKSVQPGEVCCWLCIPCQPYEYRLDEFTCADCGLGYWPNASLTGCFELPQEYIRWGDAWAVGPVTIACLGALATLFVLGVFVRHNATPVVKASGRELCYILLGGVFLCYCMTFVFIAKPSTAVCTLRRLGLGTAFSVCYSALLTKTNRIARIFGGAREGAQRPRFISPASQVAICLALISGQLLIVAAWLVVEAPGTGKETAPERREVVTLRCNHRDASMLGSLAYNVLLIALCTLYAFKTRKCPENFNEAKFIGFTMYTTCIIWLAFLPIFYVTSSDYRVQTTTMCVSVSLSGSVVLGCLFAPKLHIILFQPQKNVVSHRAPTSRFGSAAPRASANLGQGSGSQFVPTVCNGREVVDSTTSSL

[4] = target: Metabotropic glutamate receptor 1 (Rattus norvegicus, UniProt P23385); test: Agonist activity in rat at mGlu1a receptor expressed in HEK293 cells; type: functional, cell-based
Metabotropic glutamate receptor 1, sequence (P23385 whole entry): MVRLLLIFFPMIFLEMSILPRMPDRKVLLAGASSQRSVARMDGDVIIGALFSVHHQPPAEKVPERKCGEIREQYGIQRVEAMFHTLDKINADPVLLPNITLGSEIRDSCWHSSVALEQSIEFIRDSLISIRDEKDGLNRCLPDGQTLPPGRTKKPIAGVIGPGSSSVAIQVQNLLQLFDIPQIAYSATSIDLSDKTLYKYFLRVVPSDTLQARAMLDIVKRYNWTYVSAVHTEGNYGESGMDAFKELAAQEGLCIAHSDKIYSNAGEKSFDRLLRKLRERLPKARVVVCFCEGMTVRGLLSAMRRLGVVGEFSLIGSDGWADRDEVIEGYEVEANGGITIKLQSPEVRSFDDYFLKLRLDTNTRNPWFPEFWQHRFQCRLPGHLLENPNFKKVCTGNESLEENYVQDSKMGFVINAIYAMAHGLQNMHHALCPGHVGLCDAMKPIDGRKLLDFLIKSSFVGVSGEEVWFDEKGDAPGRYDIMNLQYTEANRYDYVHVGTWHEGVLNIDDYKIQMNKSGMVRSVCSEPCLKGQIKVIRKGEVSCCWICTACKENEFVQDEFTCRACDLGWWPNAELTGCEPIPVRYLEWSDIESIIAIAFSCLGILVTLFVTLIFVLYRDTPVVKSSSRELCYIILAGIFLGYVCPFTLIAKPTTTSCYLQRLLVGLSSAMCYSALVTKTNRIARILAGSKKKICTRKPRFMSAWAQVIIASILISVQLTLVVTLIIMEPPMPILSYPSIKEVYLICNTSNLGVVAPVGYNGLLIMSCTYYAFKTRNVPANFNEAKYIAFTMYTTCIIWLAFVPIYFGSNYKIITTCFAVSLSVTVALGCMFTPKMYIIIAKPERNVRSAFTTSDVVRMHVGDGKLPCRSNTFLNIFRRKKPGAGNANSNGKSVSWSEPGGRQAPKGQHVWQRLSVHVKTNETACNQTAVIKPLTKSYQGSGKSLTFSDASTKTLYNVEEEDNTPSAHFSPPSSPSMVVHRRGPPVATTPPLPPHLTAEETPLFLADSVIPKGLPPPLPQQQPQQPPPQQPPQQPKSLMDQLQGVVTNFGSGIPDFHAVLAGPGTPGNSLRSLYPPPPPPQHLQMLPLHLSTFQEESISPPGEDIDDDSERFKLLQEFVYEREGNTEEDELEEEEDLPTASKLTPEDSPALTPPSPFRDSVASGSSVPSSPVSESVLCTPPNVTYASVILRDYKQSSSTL

[5] = target: Metabotropic glutamate receptor 1 (Rattus norvegicus) (UniProt P23385); test: Maximal effect obtained with 1 mM of the drug expressed as percent of maxiaml effect of glutamate in rat at mGlu1a receptor expressed in HEK293 cells; type: functional, cell-based
Metabotropic glutamate receptor 1 (Rattus norvegicus), sequence (P23385 19-1199 limits assumed): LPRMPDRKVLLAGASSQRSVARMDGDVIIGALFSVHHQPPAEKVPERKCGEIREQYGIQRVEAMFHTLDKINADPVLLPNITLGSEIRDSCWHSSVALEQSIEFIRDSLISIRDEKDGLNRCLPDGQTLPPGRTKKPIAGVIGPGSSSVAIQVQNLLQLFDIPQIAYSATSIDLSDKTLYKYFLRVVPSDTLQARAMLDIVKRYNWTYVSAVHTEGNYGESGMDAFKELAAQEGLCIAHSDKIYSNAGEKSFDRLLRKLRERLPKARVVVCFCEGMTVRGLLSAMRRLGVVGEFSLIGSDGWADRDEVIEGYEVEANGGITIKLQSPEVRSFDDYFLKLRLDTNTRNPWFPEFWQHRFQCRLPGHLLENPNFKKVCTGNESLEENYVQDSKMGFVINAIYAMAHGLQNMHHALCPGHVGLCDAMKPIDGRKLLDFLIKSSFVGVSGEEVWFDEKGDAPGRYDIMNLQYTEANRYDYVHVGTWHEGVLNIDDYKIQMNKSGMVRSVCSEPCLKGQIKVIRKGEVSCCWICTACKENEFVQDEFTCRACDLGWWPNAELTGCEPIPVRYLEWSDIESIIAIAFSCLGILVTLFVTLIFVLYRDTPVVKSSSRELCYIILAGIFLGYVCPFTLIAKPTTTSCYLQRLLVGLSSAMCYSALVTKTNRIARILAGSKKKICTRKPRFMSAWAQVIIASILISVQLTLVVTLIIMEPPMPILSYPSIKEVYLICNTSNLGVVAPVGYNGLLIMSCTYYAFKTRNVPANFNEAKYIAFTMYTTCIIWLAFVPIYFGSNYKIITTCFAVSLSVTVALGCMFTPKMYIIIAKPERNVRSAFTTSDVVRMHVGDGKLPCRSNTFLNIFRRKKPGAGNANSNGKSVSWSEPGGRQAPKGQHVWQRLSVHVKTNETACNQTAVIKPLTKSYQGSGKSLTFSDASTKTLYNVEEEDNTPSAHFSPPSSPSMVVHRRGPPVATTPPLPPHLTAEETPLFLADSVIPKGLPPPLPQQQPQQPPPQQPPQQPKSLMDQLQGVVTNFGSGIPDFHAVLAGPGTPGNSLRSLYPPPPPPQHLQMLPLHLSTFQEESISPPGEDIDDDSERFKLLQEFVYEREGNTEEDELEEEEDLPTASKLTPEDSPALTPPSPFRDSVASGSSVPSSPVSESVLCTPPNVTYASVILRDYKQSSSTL

[6] = target: Metabotropic glutamate receptor 2 (Rattus norvegicus, UniProt P31421); test: Agonist activity in rat at mGlu2 receptor expressed in HEK293 cells; type: functional, cell-based
Metabotropic glutamate receptor 2, sequence (P31421 whole entry): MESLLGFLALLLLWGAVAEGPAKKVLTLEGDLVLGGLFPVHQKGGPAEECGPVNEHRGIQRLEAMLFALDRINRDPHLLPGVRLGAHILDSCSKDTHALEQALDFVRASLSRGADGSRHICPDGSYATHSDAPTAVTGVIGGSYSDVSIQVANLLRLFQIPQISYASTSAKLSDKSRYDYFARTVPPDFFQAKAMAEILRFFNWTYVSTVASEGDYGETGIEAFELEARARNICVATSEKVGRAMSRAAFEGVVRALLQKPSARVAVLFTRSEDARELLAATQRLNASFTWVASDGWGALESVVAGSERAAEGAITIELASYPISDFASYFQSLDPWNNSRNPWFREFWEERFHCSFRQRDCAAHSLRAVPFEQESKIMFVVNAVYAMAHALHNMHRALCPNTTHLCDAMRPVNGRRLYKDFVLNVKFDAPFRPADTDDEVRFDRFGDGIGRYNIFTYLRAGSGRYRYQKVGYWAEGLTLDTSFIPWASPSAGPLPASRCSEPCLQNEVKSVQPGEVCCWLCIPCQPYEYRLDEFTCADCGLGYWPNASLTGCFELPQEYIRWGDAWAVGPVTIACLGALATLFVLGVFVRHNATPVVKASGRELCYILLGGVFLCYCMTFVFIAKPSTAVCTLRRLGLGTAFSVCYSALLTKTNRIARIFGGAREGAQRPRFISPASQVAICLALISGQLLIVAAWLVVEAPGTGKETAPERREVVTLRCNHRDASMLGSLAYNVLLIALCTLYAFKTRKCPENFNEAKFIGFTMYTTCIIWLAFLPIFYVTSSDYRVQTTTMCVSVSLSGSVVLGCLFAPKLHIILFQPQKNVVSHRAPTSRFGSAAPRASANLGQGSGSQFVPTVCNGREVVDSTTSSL

[7] = target: T1, Metabotropic glutamate receptor 8; test: Agonist activity in rat at mGlu8a receptor expressed in HEK293 cells; type: functional, cell-based
[8] = target: Metabotropic glutamate receptor 2 (Rattus norvegicus) (UniProt P31421); test: as §1; type: functional, cell-based

T1 sequence (P70579 whole entry): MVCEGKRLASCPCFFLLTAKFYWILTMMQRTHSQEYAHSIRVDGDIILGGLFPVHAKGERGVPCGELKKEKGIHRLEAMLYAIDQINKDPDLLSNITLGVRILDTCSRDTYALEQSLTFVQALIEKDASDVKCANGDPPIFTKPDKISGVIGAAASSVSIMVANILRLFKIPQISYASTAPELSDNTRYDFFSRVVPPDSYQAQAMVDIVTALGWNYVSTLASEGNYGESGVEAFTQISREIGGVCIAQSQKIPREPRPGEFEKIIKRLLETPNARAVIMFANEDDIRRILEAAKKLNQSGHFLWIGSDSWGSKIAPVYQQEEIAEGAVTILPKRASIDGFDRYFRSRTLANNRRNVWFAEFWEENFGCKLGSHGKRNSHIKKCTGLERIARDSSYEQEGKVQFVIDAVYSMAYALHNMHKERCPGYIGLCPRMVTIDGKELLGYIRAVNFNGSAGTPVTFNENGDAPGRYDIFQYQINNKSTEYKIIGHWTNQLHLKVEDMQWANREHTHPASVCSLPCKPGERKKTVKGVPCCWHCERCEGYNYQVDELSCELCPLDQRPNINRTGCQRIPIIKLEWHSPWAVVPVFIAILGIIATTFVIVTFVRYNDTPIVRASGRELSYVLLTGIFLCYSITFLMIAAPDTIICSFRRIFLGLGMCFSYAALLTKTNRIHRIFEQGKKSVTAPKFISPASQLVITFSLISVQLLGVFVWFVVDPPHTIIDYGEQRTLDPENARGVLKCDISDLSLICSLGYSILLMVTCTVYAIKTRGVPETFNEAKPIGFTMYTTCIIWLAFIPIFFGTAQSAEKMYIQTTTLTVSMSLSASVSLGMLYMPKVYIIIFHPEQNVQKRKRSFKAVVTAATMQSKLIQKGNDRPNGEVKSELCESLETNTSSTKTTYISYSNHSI
Metabotropic glutamate receptor 8 (Rattus norvegicus), sequence (P70579 whole entry): as above

EC50 [1]	Rmax [2]	Rmax [3]	EC50 [4]	Rmax [5]	EC50 [6]	EC50 [7]	Rmax [8]	SMILES
8 µM	–	–	–	–	–	–	–	N[C@@H](CCC(=O)O)C(=O)O [GLUTAMIC ACID]
–	54%	52%	373 µM	70%	161 µM	69 µM	–	N[C@@H](C[C@@H](O)C(=O)O)C(=O)O
–	94%	–	11 µM	95%	137 µM	53 µM	60%	N[C@@H](C[C@H](O)C(=O)O)C(=O)O

Reference: ChEMBL document CHEMBL1134758, “New probes of the agonist binding site of metabotropic glutamate receptors” (Bioorg Med Chem Lett, 2001)
